# Patent US20230257366A1, “SULFUR-CONTAINING ISOINDOLINE DERIVATIVE, AND PREPARATION METHOD THEREFOR AND MEDICAL USE THEREOF” (JIANGSU HENGRUI PHARMACEUTICALS CO., LTD., priority 2020, published 2023)
# Experiments:
# NCI-H929 xenograft tumor = test: Pharmacodynamic test: NCI-H929 xenograft tumor in CB-17 SCID mice; format: in vivo
# Description: This experiment was performed to evaluate the inhibition effect of the compound of Example 6 and the control example CC-92480 on the growth of human multiple myeloma cell NCI-H929 xenograft tumor in CB-17 SCID mice.
# Compound of Example 6; control example CC-92480 (see compound 2 of WO2019014100A1, synthesized according to the method disclosed therein)
# Solutions of the compound of Example 6 and the control example CC-92480 were prepared with 5% DMSO+20% PEG400+70% (10% TPGS)+5% (1% HPMC K100LV).
# Thirty CB-17 SCID female mice, purchased from Beijing Vital River Laboratory Animal Technology Co., Ltd. (certificate No. 20170011006049, SCXK (Shanghai) 2017-0011), weighing about 19 g at the time of purchase, were bred at 5 mice/cage (in 12/12 hour light/dark cycle, at a constant temperature of 23±1° C. and humidity of 50%-60%) and had free access to food and water.
# After adaptive feeding, the CB-17 SCID mice were grouped as follows:
# (§1) NCI-H929 cells in a logarithmic growth phase were inoculated subcutaneously into the right flank of 30 female CB-17 SCID mice at 5×10^6 cells/mouse/100 μL (containing 50 μL of Matrigel). After 10 days, when the tumor volume of the tumor-bearing mice reached about 200 mm^3, the mice were randomly divided into 3 groups according to the tumor volume and body weight: vehicle control group, CC-92480-1 mpk, compound of Example 6-1 mpk, with 7 mice in each group. The day of grouping was set as Day 0 (D0), and intragastric administration was performed once a day for 11 days (Table 2). For the tumor-bearing mice, the tumor volume was measured with a vernier caliper and the body weight was measured with a balance twice a week, and the data were recorded.
# All data were plotted and statistically analyzed using Excel and GraphPad Prism 5 software.
# The tumor volume (V) was calculated as follows: V=½×a×b^2, where a and b represent length and width, respectively.
# The relative tumor proliferation rate T/C (%)=(T−T0)/(C−C0)×100(%), where T and C are the tumor volume of animals at the end of the experiment in the treatment group and control group, respectively; T0 and C0 are the tumor volume of animals at the beginning of the experiment in the treatment group and control group, respectively.
# Tumor growth inhibition TGI (%)=1−T/C (%), and when TGI (%) exceeds 100%, no specific value will be shown, and it is expressed only by >100%.
# Tumor regression (%)=[(T0−T)/T0]×100(%).
# [1] = Effect on body weight of tumor-bearing CB-17 SCID mice; format: in vivo; conditions: 1 mg/kg qd, 11 days
# Description: as §1
# The effect of the compound of Example 6 and the control example CC-92480 on the body weight of CB-17 SCID mice is shown in FIG. 2.
compound,measurement,setting,value
"N#Cc1ccc(N2CCC(Sc3ccc(COc4cccc5c4CN([C@H]4CCC(=O)NC4=O)C5=O)cn3)CC2)c(F)c1 [Compound 6, (S)-4-(4-((5-(((2-(2,6-dioxopiperidin-3-yl)-1-oxoisoindolin-4-yl)oxy)methyl)pyridin-2-yl)thio)piperidin-1-yl)-3-fluorobenzonitrile]",tumor inhibition rate (TGI),"NCI-H929 xenograft tumor; 1 mg/kg qd, 11 days after administration",> 100%
same,Mean tumor volume D0,"NCI-H929 xenograft tumor; 1 mg/kg qd, baseline at day of grouping (D0), n=7",155.4 mm^3
same,Number of remaining animals/group,NCI-H929 xenograft tumor; 1 mg/kg qd/11d po,7/7
same,% tumor regression D11,"NCI-H929 xenograft tumor; 1 mg/kg qd/11d po (i.g.), D11",88%
same,Mean tumor volume D11,"NCI-H929 xenograft tumor; 1 mg/kg qd/11d po (i.g.), D11, n=7",18.6 mm^3
same,influence on the body weight of mice,[1],no influence on the body weight of mice
